From a melting point compilation (Tetko et al.; mined from patent text by program, amines drawn as free bases though some values may be those of a salt)

SMILES	melting point
O=Cc1cccc(C=O)c1O	122 to 125 °C
CC(C)(C)OC(=O)N(Cc1csc2ccccc12)S(N)(=O)=O	103 °C
CCC1(CC)OC(=S)Nc2ccc(-c3cccc([N+](=O)[O-])c3)cc21	180 to 181 °C
O=C1C2CCCN2S(=O)(=O)N1CSc1ccccc1 (stereo not given)	90.5 to 91.5 °C
CCOC(=O)C=Cc1ccn(S(=O)(=O)c2ccc3nc[nH]c(=O)c3c2)c1	207 to 210 °C
COc1ccc(C(=O)Nc2c(Cl)cncc2Cl)cc1OCCCCCCCCCCCc1ccccc1	114 to 115 °C
Cc1nn(-c2ccccn2)c2nc3ccccc3c(OCC(C)C)c12	117 to 120 °C
CCCN1CCCC1CNS(=O)(=O)c1ccc(Nc2ccnc3cc(Cl)ccc23)cc1 (stereo not given)	192 to 194 °C
O=C1CC[C@H](N2C(=O)c3cccc(CNC(=O)C4CC4)c3C2=O)C(=O)N1	219 to 221 °C
Cc1c(F)c(N2CCN(C=O)C(C)C2)cc2c1c(=O)c(C=O)cn2C1CC1 (stereo not given)	258 to 260 °C
OCc1cc(Cl)c(N=C2NCCN2)c(Cl)c1	208 to 210 °C
Cc1c(-c2ccc3c(c2)N(C)C(=O)CS3)nc2ccccn12	191 °C
COc1ccc(N2CCN(CCn3c(=NC(=O)C(F)(F)F)sc4cc(C(F)(F)F)ccc43)CC2)cc1	120 °C
O=c1nc(-c2ccccn2)sc2cc(F)ccc12	250 °C
COc1ccccc1-n1c(=O)[nH]c2ccc(-c3cccc(O)c3)nc21	240 to 242 °C
CN1C(=O)CC[C@]2(C)c3ccc(-c4ccc5ccccc5c4)cc3CC[C@@H]12	221 to 223 °C
COc1cc(-c2[nH]c3ccc(OCc4ccccc4)cc3c2C)ccc1OCc1ccccc1	155 to 158 °C
O=Cc1ccc(OCCN2Cc3ccccc3C2=O)cc1	134 to 135 °C
CSCC(=O)C(Cc1ccc2ccccc2c1)NC(=O)C(CC(C)C)NC(=O)OCc1ccccc1 (stereo not given)	101 to 103 °C
CC(C)(C)c1cc(CCc2nnc(N)o2)cc(C(C)(C)C)c1O	220 to 221 °C
Cc1cc2ncc(-c3ccsc3)nc2cc1C	142 to 144 °C
O=C1c2ccc3c4cccc5cccc(c6ccc(c2c36)C(=O)N1CCCCCO)c54	274 to 276 °C
Cc1nc(N(C)C)sc1C(=O)c1ccc(N)c([N+](=O)[O-])c1	225 to 228 °C
O=Cc1cccc([N+](=O)[O-])c1F	46 to 47 °C
Nc1ccc(Oc2cccc(Oc3ccc(N)c(O)c3)c2)cc1O	171 to 174 °C

SMILES	melting point
CC(C(=O)O)=C1c2ccccc2C=Cc2ccccc21	235 to 236 °C
COC(=O)CCC(=O)c1ccc(-c2ccc(Cl)s2)cc1	117 to 118 °C
CCn1c(=O)ccn(-c2ccc([N+](=O)[O-])cc2)c1=O	182 °C
CC(C)=CCc1c(O)ccc(C(=O)C=Cc2ccc(O)cc2)c1O	75 to 76 °C
CCCCCCCCCCCCCCCCCC(=O)N1CC2(CCCCC2)NC2(CCCCC2)C1	56 to 59 °C
O=c1ccc2c(O)cccc2o1	224 to 225 °C
CC(=O)OCCCOc1ccc([N+](=O)[O-])c(C=C2NC(=O)NC2=O)c1	94 to 130 °C
CCn1cc(C(=O)O)c(=O)c2cc(F)c(N3CCNCC3)c(F)c21	234 to 236 °C
CCCOC(=O)C(N)C=CCP(=O)(O)O (stereo not given)	161 to 162 °C
O=C(O)CCC(=O)c1ccc2sc3ccccc3c2c1	157 to 158 °C
N#Cc1c(C(F)(F)F)ccc(Cl)c1Cl	53 to 54 °C
CCOC(=O)C=Cc1cc([N+](=O)[O-])ccc1OCCCc1ccccc1	117 to 118 °C
Nc1ccccc1CNC1CCC(=O)NC1=O (stereo not given)	48 to 54 °C
OC1(NC2=NCCS2)C(=Cc2ccccc2)CSCC1=Cc1ccccc1 (stereo not given)	171 to 172 °C
CN(C)CCOc1ccc(C2(c3ccccc3)OCCC2c2ccccc2)cc1 (stereo not given)	83 to 85 °C
CC#CCOc1ccc(OCC(=O)O)cc1	114 to 116 °C
Cc1ccc2nc(-c3ccccc3)cc(Cl)c2c1	90 to 93 °C
CCOC(=O)Cc1ccc(NC(=O)C(COc2cccc(Cl)c2)NS(=O)(=O)c2ccc(Cl)cc2)cc1 (racemic)	173 to 174 °C
COc1cc(OC)cc(C(=O)N2CCc3cc(OCc4ccccc4)c(OC)cc3C2)c1	130 to 131 °C
CC(=O)SCC(Cc1ccccc1)C(=O)Nc1cc(C(=O)O)ccc1CN1CCCC1 (stereo not given)	95 to 98 °C
Cn1cnnc1SCC(=O)C12CC3CC(CC(C3)C1)C2	134 to 136 °C
COc1ccc(C2(O)OC(=O)C(c3cc(OC)c4c(c3)OCO4)=C2CC2CCCC2)cc1 (stereo not given)	139 to 140 °C
O=C(NCCc1ncc(Cl)cc1Cl)c1ccccc1I	133 °C
COc1cc(S(=O)(=O)c2ccccc2)ccc1N	149 to 150 °C
NCc1cccnc1C1CCN(c2cc3c(cc2F)c(=O)c(C(=O)O)cn3C2CC2)C1 (stereo not given)	246 to 248 °C

SMILES	melting point
O=C1CCC(N2C(=O)c3ccccc3C2=S)C(=O)N1 (stereo not given)	255 °C
Cn1cncc1C(O)(c1ccc(CO)cc1)c1ccc2c(c1)c(-c1cccc(Cl)c1)cc(=O)n2C (stereo not given)	273 °C
CCCCNC(=O)[C@@H](C[C@H](O)[C@@H](N)CC1CCCCC1)C(C)C	88.5 to 90 °C
CN1CC=C(C2=C(C#N)C(c3cccc4nonc34)c3c[nH]nc3N2)CC1 (stereo not given)	218 °C
CN1CCN(c2ccccc2C=C2C(=O)N(Cc3ccc(Cl)c(Cl)c3)c3ccccc32)CC1	120 to 124 °C
CC(C)(CO)COc1ccc(NC(=O)c2csc3c2CCCC3)cc1C#N	148 to 150 °C
O=[N+]([O-])c1cc(C(c2ccc(NCc3ccccc3)c([N+](=O)[O-])c2)(C(F)(F)F)C(F)(F)F)ccc1NCc1ccccc1	168 to 172 °C
Cc1cc(C)c(C=NCc2ccc(Cl)nc2)c(C)c1	47 to 48 °C
CN(C)c1cnn(C)c(=O)c1-c1ccccc1C=NO	202 to 203 °C
CCCCCCC(C(=O)O)n1cnc2c(NC(=O)c3ccccc3-c3nn[nH]n3)cccc21 (stereo not given)	130 to 134 °C
CN(O)C(=O)NCCCOc1ccc(-c2ccccc2)cc1	161 to 162 °C
O=C(O)CCc1cc(OCc2ccccc2)nn1Cc1ccc(Cl)cc1Cl	98 to 101 °C
O=C(O)CCCCCCCC(=O)CC(O)C(=O)C=Cc1ccccc1 (stereo not given)	81.5 to 83 °C
CN(C(C)(C)C)S(=O)(=O)c1cccnc1SCc1ccccc1	92 to 94 °C
CC1=N/C(=C\c2c[nH]c3ncccc23)C(=O)N1Cc1ccccc1	274 to 275 °C
C=CC(C)(C)CC(NC(=O)c1ccc(Cl)cc1)NC(=N[N+](=O)[O-])Nc1cccnc1 (stereo not given)	186 °C
CC(C)N1OCCC(C(O)c2cc(C(C)(C)C)c(O)c(C(C)(C)C)c2)C1=O (stereo not given)	150 to 153 °C
Cc1cnc(-c2ccc(Br)cc2)nc1-c1ccc(Br)cc1	136 to 137 °C
Cc1c(Cl)cccc1S(=O)(=O)Nc1nc(CC(=O)N2CCSCC2)cs1	103 to 106 °C
COC(=O)CCC(=O)c1ccccc1OCC(O)CNC(C)(C)C (stereo not given)	80 to 81.5 °C
CCCc1nc2c(N)nc3ccccc3c2n1CCCCCC(=O)NC	158 to 159 °C
Cc1ccc2c(c1)nnn2C(=O)N(c1ccccc1)c1ccccc1	132 to 133 °C
O=C(c1ccccc1I)N1CCOCC1	86 to 87 °C
CC[C@H](C)[C@H](NC(=O)OC(C)(C)C)C(=O)N[C@H](C(=O)N[C@@H](CC1CCCCC1)[C@@H](O)[C@@H](O)CC(C)C)[C@@H](C)CC	178 to 179 °C
COC(=O)Oc1cc(N2C(=O)C3=C(CCCC3)C2=O)c(F)cc1Cl	138 to 146 °C

SMILES	melting point
CC(=O)Nc1nc(CCc2ccc(CCl)cc2)c(Cc2ccc(S(C)(=O)=O)cc2)s1	202 to 203 °C
O=C(O)Cc1ccc(-c2cn3ccccc3n2)cc1	217 to 221 °C
CC(C)(ON1C(C)(C)CC(OC(=O)c2ccccc2)CC1(C)C)c1ccccc1	105 to 108 °C
COc1ccc(CCN2CCC(Nc3nc4cncnc4n3Cc3ccccn3)CC2)cc1	144 °C
CC(C)C[C@H](NC(=O)C12CC3CC(CC(C3)C1)C2)C(=O)NCC(N)=O	123 to 127 °C
[N-]=[N+]=NS(=O)(=O)c1ccccc1[N+](=O)[O-]	73 to 74 °C
CN1C(=O)c2c(Oc3ccccc3OS(=O)(=O)C(F)(F)F)cc3c(c2C1=O)c1ccc(OCc2ccccc2)cc1n3C(=O)OC(C)(C)C	186 °C
Cc1ccc(-c2ccc(Cl)c(C(=O)NCC34CC5CC(CC(C5)C3)C4)c2)c(C(=O)O)c1	214 to 216 °C
COc1cc2c(c3c1OC(C)(C)C3)C(c1cccc(NC(=O)NCCCl)c1)=NC(C)(C)C2	147 to 150 °C
CC1(C)c2ccccc2C(C)(C)N1O	128 to 130 °C
Nc1cc(S)c(Cl)cc1F	64.5 to 66 °C
CCCCNC(=O)c1cc(C(C)(C)C)c(O)c(C(C)(C)C)c1	181 to 183 °C
COc1cc(C2=NC(C)(C)CO2)cc(OC)c1Br	172 to 174 °C
CCCCC1(CCCC)N[C@@H](c2nc(-c3ccccc3)c[nH]2)Cc2c1sc1ccccc21	198 to 200 °C
CN(C)c1ccc(C=Cc2cc3cc(O)ccc3o2)cc1	177 to 178 °C
COc1ccc(C(=O)Nc2c(Cl)cncc2Cl)c2cc(C(=O)N3CCN(C)CC3)oc12	224 to 225 °C
O=C1c2ccccc2CCc2cc(Br)ccc21	94 to 96 °C
N#Cc1cccc(Cn2cnc(C(N)=O)c2N)c1	246 to 247 °C
N#CN=C(N)c1cc2c(Oc3ccc(Cl)cc3)cncc2s1	265 to 268 °C
C=CCN(CC=C)c1nc(NC2CC(C)(C)NC(C)(C)C2)nc(NC(C)(C)CC(C)(C)C)n1	180 °C
CC(=O)Nc1cccc(-n2c(=O)c(CCCc3ccncc3)cc3cccnc32)c1	200 to 202 °C
O=C(O)N1CCN(C(=O)c2cccs2)CC1	76 °C
CCCCc1nc(=O)n2ncc(Br)c2[nH]1	188 °C
c1ccc(-c2cc3nccnc3[nH]2)nc1	234 to 235 °C
O=C(/C=C/c1ccccc1F)N1CCN(C(=O)c2cc(C(F)(F)F)cc(C(F)(F)F)c2)[C@H](Cc2c[nH]c3ccccc23)C1	110 to 114 °C
